{"source": "patent US7964736B2", "about": "“Phosphagen synthesis” (Nour Heart, Inc., priority 2004, dated 2011)", "key": {"[1]": {"tested_on": "isolated rabbit hearts", "assay": "Isolated ischemic rabbit hearts", "format": "in vivo"}, "[2]": {"tested_on": "chopped whole brain", "details": "0.5% in-vitro for 90 minutes; cited from earlier work"}, "[3]": {"tested_on": "isolated rabbit hearts", "details": "cited from earlier work"}, "[4]": {"tested_on": "canine heart, hypothermic cardioplegic arrest", "details": "cited from earlier work; for results (restoration of cardiac function): canine"}, "[5]": {"tested_on": "rat hearts, normothermic cardioplegic arrest", "details": "ischemia time 40 min; cited from earlier work"}, "[6]": {"tested_on": "rat heart, global warm ischemia", "details": "ischemia time 7, 9, 10 min; cited from earlier work"}, "[7]": {"tested_on": "dog hearts", "assay": "Inotropic or chronotropic effect on dog hearts", "format": "in vivo", "description": "As described above, although the mechanism by which CCr preserves the heart during ischemia and restores cardiac function during reperfusion is not fully understood, it is likely to be related to preservation of ATP. […] Since the breakdown of ATP is the immediate source of energy for contraction, and that contractile performance decreases precipitously and ceases when only 20% of ATP is depleted, the reported CCr preservation of over 85% of ATP (loss of only 15%) in ischemic myocardium is likely the major contributor to the observed restoration of post-ischemic myocardial contractility (see Allam M E, et al., Surg. Forum XLI:246-249, 1990, which is incorporated by reference in its entirety)."}, "[8]": {"tested_on": "canine heart, regional warm ischemia (LAD)", "assay": "Regional warm ischemia (LAD), intact AMI model: coronary artery occlusion followed by reperfusion", "format": "in vivo", "details": "LAD for 1 hour, and 2 hours reperfusion"}, "[9]": {"tested_on": "ischemic isolated rat hearts", "details": "cited from earlier work"}, "[10]": {"tested_on": "canine heart, regional warm ischemia (LAD)", "details": "cited from earlier work"}, "[11]": {"tested_on": "heart (cardioprotection)", "assay": "Dose-response study of cardioprotective effect", "format": "in vivo"}, "[12]": {"details": "intact canine model, coronary artery occlusion followed by reperfusion"}}, "note": "Read-outs that look alike come from different tables or passages of the source.", "data": [{"smiles": "NC1=NCCN1CC(=O)O", "note": "[CCr, 1-carboxymethyl-2-iminoimidazolidine]", "values": [{"measurement": "tissue damage", "setting": "[1]; 600 mg/kg intravenous for 2 hours prior to removing and perfusing hearts in-vitro for two hours", "value": "did not induce tissue damage"}, {"measurement": "histology after 2 hours reperfusion (contraction bands, eosinophilic changes)", "setting": "[1]; 600 mg/kg intravenous, versus control hearts", "value": "only occasional small foci of contraction bands and no significant eosinophilic changes"}, {"measurement": "protection (Nourin-1, ATP and CrP levels)", "setting": "[1]; hearts perfused with drug, without preinjection", "value": "no protection was observed"}, {"measurement": "protection of brain tissues from ischemic injury", "setting": "[2]", "value": "protected"}, {"measurement": "levels of ATP and CrP", "setting": "[3]; isolated ischemic rabbit hearts", "value": "maintained high levels"}, {"measurement": "Nourin-1 released", "setting": "[3]; treated hearts versus controls", "value": "significant reduction"}, {"measurement": "defibrillation", "setting": "[4]; bypass surgery model, untreated canines required external defibrillation", "value": "defibrillated spontaneously"}, {"measurement": "results (restoration of cardiac function)", "setting": "[4]; ischemia time 1 hr", "value": "Restoration"}, {"measurement": "results (restoration of cardiac function)", "setting": "[4]; ischemia time 3 hrs", "value": "Restoration"}, {"measurement": "results (restoration of cardiac function)", "setting": "[5]", "value": "Restoration"}, {"measurement": "results (restoration of cardiac function)", "setting": "[6]", "value": "Restoration"}, {"measurement": "inotropic or chronotropic effect", "setting": "[7]", "value": "no inotropic or chronotropic effect"}, {"measurement": "cell damage compared to control hearts", "setting": "[8]", "value": "marked reduction in cell damage"}, {"measurement": "defibrillation during reperfusion", "setting": "[9]; fed rats versus control rats", "value": "spontaneously defibrillated sooner"}, {"measurement": "reduction of myocardial ATP, exhaustion of high-energy phosphates, onset of rigor tension during cardiac ischemia", "setting": "[9]; long-term feeding (up to 3 weeks) with 1%, rats and chickens", "value": "significantly delayed"}, {"measurement": "ATP depletion and onset of rigor", "setting": "[9]; prior feeding to rats, ischemic isolated hearts", "value": "delayed ATP depletion and the onset of rigor"}, {"measurement": "number of hearts recovering mechanical function upon reperfusion", "setting": "[9]; treated rats compared to controls", "value": "significantly higher"}, {"measurement": "ATP maintained, of normal non-ischemic levels", "setting": "[10]; [12]", "value": 85, "unit": "%"}, {"measurement": "CrP maintained, of normal non-ischemic levels", "setting": "[10]; [12]", "value": 97, "unit": "%"}, {"measurement": "loss of ATP", "setting": "[10]; [12]", "value": 15, "unit": "%"}, {"measurement": "loss of CrP", "setting": "[10]; [12]", "value": 3, "unit": "%"}, {"measurement": "results (restoration of cardiac function)", "setting": "[10]; ischemia time 1 hr, canine, drug prior to ischemia", "value": "Restoration"}, {"measurement": "preservation of ATP", "setting": "[10]; ischemic myocardium", "value": "over 85%"}, {"measurement": "cardioprotective effect", "setting": "[11]; 150 mg/kg", "value": "No effect"}, {"measurement": "cardioprotective effect", "setting": "[11]; 300 mg/kg", "value": "strong cardioprotective effect"}, {"measurement": "cardioprotective effect", "setting": "[11]; 600 mg/kg", "value": "strong cardioprotective effect"}]}, {"smiles": "CN(CC(=O)O)C(=N)N", "note": "[Cr, creatine, reference compound]", "values": [{"measurement": "ATP and CrP lost", "setting": "[3]; isolated ischemic rabbit hearts, control treatment", "value": "more than 95%"}]}]}
